A short description of data set [1]: Microsome stability, rat liver microsomes. Format: in vitro ADME. Particulars: NADPH, 37 °C, pH 7.4, read-out: rLM CLint (μg/min/mg). The protocol:
(§1) In a 96 deep well plate, 2.5 μL of 20 μM of each test compound in potassium phosphate buffer (pH 7,4) with 2% 1:9 DMSO:acetonitrile were added to 5 μL of 5 mg/mL microsomes (human liver microsomes (hLM), rat liver microsomes (rLM), or mouse liver microsomes (mLM)) and 37.5 μL of 100 mM prewarmed phosphate buffer (pH 7.4). Time point 0 (T0) samples were immediately quenched with 200 μL of chilled acetonitrile containing 50 ng/mL of internal standard. 5 4, of 10 mM NADPH was added to all other samples to start the reaction. The plate was incubated in a reciprocating water bath at 37 ° C. on 50 rpm for the duration of the assay. The remaining samples were quenched with 200 μL of chilled acetonitrile containing 50 ng/mL of internal standard at various timepoints. The samples were analyzed by LC-MS/MS (Sciex API 4500 QTrap). The % remaining, terminal elimination rate constant (K), half-life (t1/2), and intrinsic clearance (CLint) were calculated.
(Liver microsomes are a subcellular fraction often used to study metabolism.)

Data set [2] is described as follows: Microsome stability, mouse liver microsomes. The class given is in vitro ADME. The note with it: NADPH, 37 °C, pH 7.4, read-out: mLM CLint (μg/min/mg). The protocol: as §1
A short description of data set [3]: Microsome stability, human liver microsomes. Format: in vitro ADME. Particulars: NADPH, 37 °C, pH 7.4, read-out: hLM CLint (μg/min/mg). As to the method:
as §1

Data set [4] has as its system MIA PaCa-2 human pancreatic carcinoma cells. Briefly: Cell proliferation assay (resazurin) in MIA PaCa-2 cells. Format: cell-based. The note with it: 96 hr compound incubation, inhibition of proliferation. As to the method: (§2) HCT 116 colorectal carcinoma cells (ECACC/Sigma-Aldrich #91091005) were seeded in medium (McCoy's 5a+10% FBS) at a cell count of 1500 cells per 100 μL per well in a 96 well edge plate (ThermoFisher #167425). Cells were cultured at 37° C. for 24 hr in 5% CO2 environment (culture conditions) in a Nuaire incubator (humidified). Serially diluted test compounds (100 μL) within the desired testing concentration range (e.g., 0.014-30 μM) were added to the culture plate and the cells were further incubated in culture conditions for 72 hr. The experiment was terminated at the designated incubation time by replacing the medium with 100 μL, of 1 mM resazurin (Sigma-Aldrich #R7017) prepared in culture medium, and the plates were further incubated in culture conditions for 4-6 hr. Fluorescence was recorded using a multimodal plate reader (Biotek Synergy Neo) at an excitation wavelength of 535 nm and emission wavelength of 590 nm to obtain relative fluorescence units.
(§3) Data were analyzed as follows: the background fluorescence (blank containing only medium) value was subtracted from each reading and normalized with the vehicle control ([…]treated cells) to obtain percent survival/proliferation. Percent survival was subtracted from 100 to get the percent inhibition of proliferation which was used to calculate IC50 values.
Testing in MIA PaCa-2 human pancreatic carcinoma cells (ATCC® CRL-1420™) was done identically, except that the medium used was DMFM+10% FBS+2.5% horse serum, the cells were seeded at a cell count of 3000 cells per 100 μL per well and the test compound incubation time was 72 or 96 hr. The potency of compounds in other cell lines may be determined in an analogous manner.

Data set [5] has as its system HCT 116 colorectal carcinoma cells. As to the kind of experiment: Cell proliferation assay (resazurin) in HCT 116 cells. Format: cell-based. The note with it: Homo sapiens, 72 hr compound incubation, inhibition of proliferation. As to the method:
as §2, §3
A general note: Alamar Blue is a resazurin reagent that responds to reducing activity.

In the case of `N/C(=N\C(=O)c1nc(Cl)c(NCc2ccc(I)cc2)nc1N)NCCCOc1ccc(Cl)cc1` [Compound 52, 3-amino-4-(amino(3-(4-chlorophenoxy)propylamino)methylene)-6-chloro-5-(4-iodobenzylamino)pyrazine-2-carboxamide], the microsomal CLint at 1 µM in data set [1] was found to be 49 µL/min/mg; in data set [2] it was 81 µL/min/mg; in data set [3] it was 20 µL/min/mg. Further, the IC50 in data set [4] came out at 2.92 µM; in data set [5], 1.33 µM.
Consider `N/C(=N\C(=O)c1nc(Cl)c(NCc2ccc(I)cc2)nc1N)NCC1CCN(CCc2ccccc2)CC1` [Compound 51, 3-amino-N-(amino(((1-phenethylpiperidin-1-yl)methyl)amino)methylene)-6-chloro-5-((4-iodobenzyl)amino)pyrazine-2-carboxamide], for which the values for the microsomal CLint at 1 µM in data set [1], in data set [2] and in data set [3] were 29 µL/min/mg, 67 µL/min/mg and 52 µL/min/mg, respectively. The IC50 in data set [4] stood at 1.9 µM; in data set [5], 0.69 µM.
For `Nc1nc(NCc2ccc(I)cc2)c(Cl)nc1C(=O)NCCN1CCN(Cc2ccccc2)CC1` [Compound 1, 3-amino-N-(2-(4-benzylpiperazin-1-yl)ethyl)-6-chloro-5-(4-iodobenzylamino) pyrazine-2-carboxamide], the microsomal CLint at 1 µM in data set [1] worked out at 201 µL/min/mg; in data set [2] it was 176 µL/min/mg; in data set [3], 258 µL/min/mg. The results for the IC50 in data set [4] and in data set [5] were 30.9 µM and 16.3 µM, respectively.

The IC50 is the concentration that inhibits the measured activity by half.

Source of the values: patent publication US12655131B2, “Pyrazinecarboxamide analog compounds for use in treating cancer” (NOVAPANO, LLC, priority 2019, dated 2026).
